# Key:
# [1] = system: NCI H716 cells; format: cell-based, human
# Experimental: Identifying the microbial-derived compound responsible for GLP-1 stimulatory activity—To narrow down the bacterial component responsible for GLP-1 secretion in vitro, and for metabolic disease marker modulation in vivo, size fractionation studies were performed using Amicon centrifuge filtration tubes and exposure of the fractions on NCI H716 cells.
# To further identify the component responsible for the activity, bacterial supernatants were analyzed using a Thermo Orbitrap Fusion mass spectrometer equipped with an Easy Nanospray HPLC system.
# [2] = system: GLUTag cells; assay: GLP-1 secretion by GLUTag cells, measured by ELISA; format: cell-based, murine; details: cell-free supernatants or PMA positive control on GLUTag cells
# Experimental: S. epidermidis has GLP-1 stimulatory activity in vitro in NCI H716 and GLUTag cells—In order to identify bacterial strains capable of eliciting GLP-1 secretion, 1500 microbial supernatants were screened using human NCI H716 cells. […] Following 16S rRNA sequencing, all 45 stimulatory strains came back as strains of S. epidermidis. Incubation of cell-free supernatants from two of the stimulatory strains with the highest activity, S. epidermidis JA1 and JA8 on NCI H716 cells stimulated a release of 3155±276 pM and 2518±141 pM GLP-1, respectively (FIG. 6A). GM17 media control and the PMA positive control had GLP-1 levels of 565±188 pM and 1767±120 pM GLP-1, respectively, indicating an approximate 2-fold increase in activity by JA1 over the positive PMA control. It was confirmed that JA1 and JA8 could stimulate GLP-1 secretion in a second model, murine GLUTag cells. S. epidermidis JA1 and JA8 led to the release of 1123±107 pM and 984±40 pM GLP-1, respectively (FIG. 6B). The GM17 media control and the PMA positive control had GLP-1 levels of 327±35 pM and 305±14 pM, respectively, indicating no real stimulation by PMA. […] None of the S. epidermidis bacterial cell-free supernatants had detectable toxicity on NCI H716 (FIG. 6C) and GLUTag (FIG. 6D) cells, as determined by a PrestoBlue resazurin-based analysis which measures aerobic respiration as an indicator of cell viability.
Compound,release of GLP-1 ([1]; cell-free supernatants or PMA positive control on NCI H716 cells) [pM],release of GLP-1 [2] [pM],"GLP-1 stimulatory activity (GLP-1) ([1]; 20 μM peptide, NCI H716 cells) [pM]","GLP-1 stimulatory activity of synthesized peptides ([1]; varying concentrations, NCI H716 cells)"
"CCCCCCCCCCCCCC(=O)O[C@@H]1[C@@H](C)[C@@]2(O)[C@@H](C=C(CO)C[C@]3(O)C(=O)C(C)=C[C@@H]23)[C@@H]2C(C)(C)[C@]12OC(C)=O [PMA, reference compound]",1767 ± 120,305 ± 14,–,–
MAADIISTIGDLVKWIIDTVNKFTKK [24_25insT],–,–,1283.5 ± 798,activity

# From patent US11028141B2, “Therapeutic for the prevention and/or treatment of weight gain and/or diabetes” (priority 2016, dated 2021)
